In US20250032624A1, “SMALL MOLECULE DEGRADATION METHODS FOR TREATING ALS/FTD” (University of Florida Research Foundation, Incorporated, priority 2021, published 2025):

Tests used:
[1] = tested on: iPSC differentiated motor neurons (iPSNs); assay: Cell viability in iPSNs; format: cell-based, human; conditions: doses up to 1 μM
Protocol: (§1) Patient-derived LCLs were seeded overnight in 96-well plates (˜10^4 cells/well) and treated with compounds for 96 hours. Cell viability was measured using the CellTiter-Fluor™ Cell Viability Assay (Promega) per the manufacturer's protocol. iPSC cell viability was measured by seeding cells in Matrigel-coated 6-well plates with Basal medium (iPSC maintenance described above). After overnight incubation, the medium was replaced with fresh medium containing compounds diluted in 0.1% DMSO. Cells were treated with compound for 96 hours. Cell viability was measured using the AlamarBlue™ Cell Viability Reagent (DAL1025, Thermo Fisher Scientific) per the manufacturer's protocol. iPSN cell viability was measured by […]

[2] = tested on: lymphoblastoid cell lines (LCLs); assay: Cell viability in LCLs; format: cell-based, human; conditions: doses up to 1 μM
Protocol: as §1

[3] = target: r(G4C2)8; assay: Affinity by microscale thermophoresis (MST), r(G4C2)8; format: binding
Protocol: Affinity measurements were performed by MST using a Monolith NT.115 system (NanoTemper Technologies) with 5′-Cy5-labeled r(G4C2)8 (SEQ ID NO: 1), 5′-Cy5-labeled d(G4C2)8 (SEQ ID NO: 1), and 5′-Cy5-labeled base pair control r(G2C2)4GAAA(G2C2)4 (SEQ ID NO: 49). All oligos were deprotected according to the manufacturer's recommended protocol. Samples were prepared as previously described^30. Briefly, RNA or DNA (5 nM) was folded in 1×MST Buffer (8 mM Na2HPO4, 185 mM NaCl, 1 mM EDTA) by heating at 95° C. for 5 minutes and slowly cooling to room temperature. Tween-20 was then added to a final concentration of 0.05% (v/v). Serial dilutions of compound in 1×MST Buffer containing 5 nM folded nucleic acid were then carried out to yield the desired compound concentrations. Samples were incubated for 90 minutes at room temperature and then loaded into premium capillaries (NanoTemper Technologies). The following parameters were used on the Monolith NT.115 system: 10% LED, 20-80% MST power, Laser-On time=30 s, Laser-Off time=5 seconds. Fluorescence was detected using excitation wavelengths of 605-645 nm and emission wavelengths of 680-685 nm. The resulting data were analyzed by thermophoresis analysis and fit using the quadratic binding equation in the MST analysis software (NanoTemper Technologies). The dissociation constant was determined using Equation 1. […]

[4] = tested on: r(G4C2)^exp-containing intron 1 of C9orf72; assay: C9orf72 transcript RT-qPCR in c9ALS/FTD patient-derived LCLs; format: cell-based, human; conditions: 500 nM
Protocol: Measuring Levels of C9orf72 and C9orf72 Variants by RT-qPCR. LCLs and iPSCs were seeded in 6-well plates (˜10^6 cells in 2 mL of Basal medium) and incubated overnight at 37° C. with 5% CO2. LCLs were then treated with compound for 4 days without media changes; patient-derived iPSCs were seeded at ˜80% confluency and treated, as described above. Treatment with either a G4C2-ASO or Control-ASO (100 nM) was used as a control. ASO transfection was achieved using Lipofectamine RNAiMax (Life Technologies), following the manufacturer's protocol. After 4 days of treatment (with either compound or ASO), total RNA was extracted using the Quick-RNA Miniprep Kit (Zymo Research). RNA was quantified via Nanodrop and ˜1 μg of total RNA was reverse transcribed using qScript (Quantbio), according to the manufacturer's guidelines. RT-qPCR was performed on a QuantStudio™ Real-Time PCR Instrument (Applied Biosystems) using Power SYBR Green Master Mix (Applied Biosystems). Expression levels of mRNAs were normalized to GAPDH. See Table 2 for a list of primers used.

[5] = tested on: r(G4C2)^exp-containing C9orf72 transcript; assay: C9orf72 variants by RT-qPCR in brain of +/+PWR500 BAC mice; format: in vivo, mouse; conditions: 3 weeks
Protocol: A total of 20 age- and gender-matched mice (12 +/+PWR500 [5 Male and 7 Female] and 8 WT [4 Male and 4 Female]), ranging from 18-21 weeks old were used in therapeutic efficacy studies (Table 4). Mice were treated with a single bolus injection of 33 nmol of compound 2 formulated in 1% (v/v) DMSO/99% water, administered by an intracerebroventricular injection (ICV). Three weeks post injection, mice were euthanized, and tissue was harvested for study.
Postmortem brain tissue was harvested and sliced along the sagittal plane at the midline. The left hemisphere was frozen for RNA and protein analysis. Frozen brain tissue was homogenized in 300 μL Tris-EDTA buffer with a 1:5 w/v ratio of 2× Protease and Phosphatase Inhibitors. RNA was extracted from half of the homogenized tissue solution (150 μL) using Triazol LS (added at a 1:3 ratio to the homogenized tissue). The Triazol/tissue solution was centrifuged for 15 minutes at 16,000 rpm and the supernatant was collected. An equal volume of 100% ethanol was added to the supernatant, and RNA was purified using the Direct-zol RNA Kit (Zymo Research) per the manufacturer's protocol. RT-qPCR was then performed as described above. Expression levels of mRNAs were normalized to mouse β-actin.

[6] = single ICV injection of 10 mg/kg, total brain tissue

CCOC(=O)C1=C(Nc2ccccc2)S/C(=C\c2ccc(OCCOCCOCCOCCNC(=O)CCCOc3ccc4c(c3)c3cc5c(C(=O)N[C@H](C)CN(C)C)nccc5c(C)c3n4C)c(O)c2)C1=O [ALS Compound Formula I]
toxicity [1]: no significant toxicity
toxicity [2]: no significant toxicity
Kd [3]: 3.3 ± 1.91 µM
reduction in C9orf72 intron 1 abundance [4]: ~50%
decrease of C9orf72 intron 1 abundance [5, 6]: ~25%
decrease of exon 2-3 abundance [5, 6]: ~20%
exon 1b abundance ([5]; single ICV injection): unchanged
exon 1b to exon 2 junction (human C9orf72 abundance) ([5]; single ICV injection): unchanged
